The experiment has as its system HisA enzyme from Nicotiana Plumbaginifolia. Description: HisA enzyme activity assay (INT/PMS dye, absorbance at 530 nm). The experiment is classed as biochemical. As to conditions: partially purified recombinant enzyme expressed in E. coli BL21 (DE3); 0.2 M Triethanolamine pH 8.5, 30° C.; read-out: Km for substrate. On the procedure:
The HisA enzyme from Nicotiana Plumbaginifolia was partially purified and assayed as follows. A plasmid clone with the cDNA insert in the correct orientation relative to the T7 promoter was transformed into E. coli strain BL21 (DE3) (Studier et al. (1986) J. Mol. Biol. 189:113-130). Cultures are grown in LB medium carbenicillin ([…]) at 28° C. to an optical denisity of 0.44 at 600 nm. Each liter of LB/carbenicillin was inoculated with 20 mL of the overnight culture. These one liter cultures were incubated at 26° C. with agitation for 21 hours. HisA expression was induced as described above. The cells were harvested by centrifugation and frozen at −80° C.
Each gram of cell paste was resuspended in two milliliters of 20 mM Triethanolamine buffer at pH 8.3 containing Complete™ protease inhibitors (Boehringer Mannheim) and 1 mM EDTA. The cells were disrupted by three passes through a microfluidizer and the lysed cell debris was removed by centrifugation. The supernatant was treated with streptomycin sulfate which was added to a final concentration of 1%. […]
HisA enzyme activity was assayed essentially as described by Margolies et al., (1966) J. Biol. Chem. 241:3262-3269. […] Blank reactions containing either no enzyme or no substrate were also prepared to control for background absorbance. […] The absorbance at 530 nm was measured.

For `NC(=O)c1ncn([C@@H]2O[C@H](COP(=O)(O)O)[C@@H](O)[C@H]2O)c1N=CN[C@@H]1O[C@H](COP(=O)(O)O)[C@@H](O)[C@H]1O` [5′ Profar, N1-[(5′-phospho-b-D-ribosyl)formimino]-5-aminoimidazole-4-carboxamide ribonucleotide], the Km stood at 200 µM.

The term Km denotes the concentration of substrate that gives half-maximal velocity.

The record behind these values is patent US20030082787A1, “Plant histidine biosynthetic enzymes” (priority 2001, published 2003).
